According to US12139492B2 (Endotarget Inc., priority 2021, dated 2024):
pIC50: −log10 of the molar value. Where two headings read alike, the source gives them in different places.

Key:
BTK = BTK (Homo sapiens, UniProt Q06187); experiment: Degradation of BTK protein in Namalwa cells (Western blot; DC50, Dmax); conditions: for DC50: cell line not given
Mino cells = experiment: Antiproliferative effect, MTS cell viability assay, Mino cells; type: cell-based; conditions: Homo sapiens, Mino mantle cell lymphoma cells, read-out: IC50 (anti-proliferation) Mino cells
How it was run: (§1)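 Tested at six concentrations (0 to 10 μM in tenfold steps), 72 h; viability by MTS, A490.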

JeKo-1 cells = experiment: Antiproliferative effect, MTS cell viability assay, JeKo-1 cells; type: cell-based; conditions: Homo sapiens; JeKo-1 mantle cell lymphoma cells; read-out: IC50 (anti-proliferation) JeKO-1 cells
How it was run: as §1

[1] = read-out: DC50 (BTK degradation), concentration giving 50% reduction of BTK expression level
[2] = read-out: Dmax (BTK degradation)

Chain of BTK (Q06187 whole entry): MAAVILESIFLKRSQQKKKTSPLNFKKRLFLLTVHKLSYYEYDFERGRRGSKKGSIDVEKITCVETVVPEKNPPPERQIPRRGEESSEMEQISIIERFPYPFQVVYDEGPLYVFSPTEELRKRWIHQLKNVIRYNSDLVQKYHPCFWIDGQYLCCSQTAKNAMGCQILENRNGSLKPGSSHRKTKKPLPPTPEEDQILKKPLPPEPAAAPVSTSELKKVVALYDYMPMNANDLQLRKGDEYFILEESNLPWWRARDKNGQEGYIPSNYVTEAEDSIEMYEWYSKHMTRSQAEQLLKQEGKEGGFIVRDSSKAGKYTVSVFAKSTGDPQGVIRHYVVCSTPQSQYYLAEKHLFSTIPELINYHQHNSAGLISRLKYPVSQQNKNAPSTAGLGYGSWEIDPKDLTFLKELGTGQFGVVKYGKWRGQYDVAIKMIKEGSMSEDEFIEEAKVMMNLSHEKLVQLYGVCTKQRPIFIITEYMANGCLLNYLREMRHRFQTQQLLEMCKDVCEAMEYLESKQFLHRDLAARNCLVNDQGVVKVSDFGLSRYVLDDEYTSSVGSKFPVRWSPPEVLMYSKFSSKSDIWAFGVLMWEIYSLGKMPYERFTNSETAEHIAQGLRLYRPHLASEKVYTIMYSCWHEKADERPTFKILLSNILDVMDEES

Nc1ncnc2c1c(-c1ccc(Oc3ccccc3)cc1)nn2C1CCN(CCN2CCC(N3CCN(c4ccc5c(c4)C(=O)N(C4CCC(=O)NC4=O)C5=O)CC3)CC2)CC1 (stereo not shown) [Compound 457, 5-(4-(1-(2-(4-(4-amino-3-(4-phenoxyphenyl)-1H-pyrazolo(3,4-d)pyrimidin-1-vi)piperidin-1-yl)ethyl)piperidin-4-yl)piperazin-1-yl)-2-(2,6-dioxopiperidin-3-yl)isoindoline-1,3-dione]
DC50 (BTK; [1]): < 10 nM | Dmax (BTK; [2]): > 90% | pIC50 (Mino cells): > 6.00 | pIC50 (JeKo-1 cells): > 6.00

Nc1ncnc2c1c(-c1ccc(Oc3ccccc3)cc1)nn2C1CCN(CCCN2CCC(CC3CCN(c4ccc(NC5CCC(=O)NC5=O)cc4)CC3)C2)CC1 (stereo not shown) [Compound 567, 3-((4-(4-((1-(3-(4-(4-amino-3-(4-phenoxyphenyl)-1H-pyrazolo[3,4-d]pyrimidin-1-yl)piperidin-1-yl)propyl)pyrrolidin-3-yl)methyl)piperidin-1-yl)phenyl)amino)piperidine-2,6-dione]
DC50 (BTK; [1]): 10 to 50 nM | Dmax (BTK; [2]): > 90% | pIC50 (Mino cells; MINO): 5.00 to 6.00 | pIC50 (JeKo-1 cells): > 6.00

Nc1ncnc2c1c(-c1ccc(Oc3ccccc3)cc1)nn2C1CCN(CC2CCN(CCN3CCN(c4ccc5c(c4)C(=O)N(C4CCC(=O)NC4=O)C5=O)CC3)CC2)CC1 (stereo not shown) [Compound 203, 5-(4-(2-(4-((4-(4-amino-3-(4-phenoxyphenyl)-1H-pyrazolo[3,4-d]pyrimidin-1-yl)piperidin-1-yl)methyl)piperidin-1-yl)ethyl)piperazin-1-yl)-2-(2,6-dioxopiperidin-3-yl)isoindoline-1,3-dione]
Dmax (BTK): > 90% | DC50 (BTK; BTK degradation): 10 to 50 nM | pIC50 (Mino cells; MINO): 5.00 to 6.00 | pIC50 (JeKo-1 cells): 5.00 to 6.00

NC(=O)c1c(-c2ccc(Oc3ccccc3)cc2)nn2c1NCCC2C1CCN(C2CCN(C(=O)N3CCC(N4CCC(c5ccc6c(c5)CN(C5CCC(=O)NC5=O)C6=O)CC4)CC3)CC2)CC1 (stereo not shown) [Compound 348, 7-(1′-(4-(2-(2,6-dioxopiperidin-3-yl)-1-oxoisoindolin-5-yl)-[1,4′-bipiperidine]-1′-carbonyl)-[1,4′-bipiperidin]-4-yl)-2-(4-phenoxyphenyl)-4,5,6,7-tetrahydropyrazolo[1,5-a]pyrimidine-3-carboxamide]
Dmax (BTK): > 90% | DC50 (BTK; BTK degradation): < 10 nM | pIC50 (Mino cells; MINO): > 6.00 | pIC50 (JeKo-1 cells): > 6.00

NC(=O)c1c(-c2ccc(Oc3ccccc3)cc2)nn2c1NCCC2C1CCN(C2CCN(C(=O)N3CCN(CC4CCN(c5ccc6c(c5)C(=O)N(C5CCC(=O)NC5=O)C6=O)CC4)CC3)CC2)CC1 (stereo not shown) [Compound 351, 7-(1′-(4-((1-(2-(2,6-dioxopiperidin-3-yl)-1,3-dioxoisoindolin-5-yl)piperidin-4-yl)methyl)piperazine-1-carbonyl)-[1,4′-bipiperidin]-4-yl)-2-(4-phenoxyphenyl)-4,5,6,7-tetrahydropyrazolo[1,5-a]pyrimidine-3-carboxamide]
Dmax (BTK): > 90% | DC50 (BTK; BTK degradation): 10 to 50 nM | pIC50 (Mino cells; MINO): > 6.00 | pIC50 (JeKo-1 cells): 5.00 to 6.00

NC(=O)c1c(-c2ccc(Oc3ccccc3)cc2)nn2c1NCC[C@H]2C1CCN(CC2CCN(C(=O)N3CCN(C4CCN(c5ccc6c(c5)CN(C5CCC(=O)NC5=O)C6=O)CC4)CC3)CC2)CC1 (stereo partly drawn) [Compound 402, (7S)-7-(1-((1-(4-(1-(2-(2,6-dioxopiperidin-3-yl)-1-oxoisoindolin-5-yl)piperidin-4-yl)piperazine-1-carbonyl)piperidin-4-yl)methyl)piperidin-4-yl)-2-(4-phenoxyphenyl)-4,5,6,7-tetrahydropyrazolo[1,5-a]pyrimidine-3-carboxamide]
DC50 (BTK; [1]): 10 to 50 nM | Dmax (BTK; [2]): > 90% | pIC50 (Mino cells; MINO): > 6.00 | pIC50 (JeKo-1 cells): 5.00 to 6.00

Nc1ncnc2c1c(-c1ccc(Oc3ccccc3)cc1)nn2C1CCN(C2CCN(C(=O)N3CCN(CCCC4CCN(c5ccc6c(c5)C(=O)N(C5CCC(=O)NC5=O)C6=O)CC4)CC3)CC2)CC1 (stereo not shown) [Compound 259, 5-(4-(3-(4-(4-(4-amino-3-(4-phenoxyphenyl)-1H-pyrazolo[3,4-d]pyrimidin-1-yl)-[1,4′-bipiperidine]-1′-carbonyl)piperazin-1-yl)propyl)piperidin-1-yl)-2-(2,6-dioxopiperidin-3-yl)isoindoline-1,3-dione]
Dmax (BTK): > 75% | DC50 (BTK; BTK degradation): > 50 nM | pIC50 (Mino cells; MINO): < 5.00 | pIC50 (JeKo-1 cells): 5.00 to 6.00

Nc1ncnc2c1c(-c1ccc(Oc3ccccc3)cc1)nn2C1CCN(C2CCN(CCCN3CCC(c4ccc5c(c4)C(=O)N(C4CCC(=O)NC4=O)C5=O)CC3)CC2)CC1 (stereo not shown) [Compound 223, 5-(1-(3-(4-(4-amino-3-(4-phenoxyphenyl)-1H-pyrazolo[3,4-d]pyrimidin-1-yl)-[1,4′-bipiperidin]-1′-yl)propyl)piperidin-4-yl)-2-(2,6-dioxopiperidin-3-yl)isoindoline-1,3-dione]
Dmax (BTK): > 75% | DC50 (BTK; BTK degradation): 10 to 50 nM | pIC50 (Mino cells; MINO): 5.00 to 6.00 | pIC50 (JeKo-1 cells): 5.00 to 6.00

NC(=O)c1c(-c2ccc(Oc3ccccc3)cc2)nn2c1NCC[C@H]2C1CCN(CC2CCN(C(=O)N3CCC(C4CCN(c5ccc6c(c5)CN(C5CCC(=O)NC5=O)C6=O)CC4)CC3)CC2)CC1 (stereo partly drawn) [Compound 406, (7S)-7-(1-((1-(1′-(2-(2,6-dioxopiperidin-3-yl)-1-oxoisoindolin-5-yl)-[4,4′-bipiperidine]-1-carbonyl)piperidin-4-yl)methyl)piperidin-4-yl)-2-(4-phenoxyphenyl)-4,5,6,7-tetrahydropyrazolo[1,5-a]pyrimidine-3-carboxamide]
DC50 (BTK; [1]): < 10 nM | Dmax (BTK; [2]): > 90% | pIC50 (Mino cells; MINO): > 6.00 | pIC50 (JeKo-1 cells): 5.00 to 6.00

NC(=O)c1c(-c2ccc(Oc3ccccc3)cc2)nn2c1NCCC2C1CCN(CC2CCN(C(=O)N3CCC(N4CCN(c5ccc6c(c5)C(=O)N(C5CCC(=O)NC5=O)C6=O)CC4)CC3)CC2)CC1 (stereo not shown) [Compound 363, 7-(1-((1-(4-(4-(2-(2,6-dioxopiperidin-3-yl)-1,3-dioxoisoindolin-5-yl)piperazin-1-yl)piperidine-1-carbonyl)piperidin-4-yl)methyl)piperidin-4-yl)-2-(4-phenoxyphenyl)-4,5,6,7-tetrahydropyrazolo[1,5-a]pyrimidine-3-carboxamide]
Dmax (BTK): > 90% | DC50 (BTK; BTK degradation): 10 to 50 nM | pIC50 (Mino cells; MINO): > 6.00 | pIC50 (JeKo-1 cells): 5.00 to 6.00

NC(=O)c1c(-c2ccc(Oc3ccccc3)cc2)nn2c1NCC[C@H]2C1CCN(C(=O)N2CCC(CC3CCN(c4ccc5c(c4)C(=O)N(C4CCC(=O)NC4=O)C5=O)CC3)CC2)CC1 (stereo partly drawn) [Compound 293, (7S)-7-(1-(4-((1-(2-(2,6-dioxopiperidin-3-yl)-1,3-dioxoisoindolin-5-yl)piperidin-4-yl)methyl)piperidine-1-carbonyl)piperidin-4-yl)-2-(4-phenoxyphenyl)-4,5,6,7-tetrahydropyrazolo[1,5-a]pyrimidine-3-carboxamide]
Dmax (BTK): > 90% | DC50 (BTK; BTK degradation): 10 to 50 nM | pIC50 (Mino cells; MINO): > 6.00 | pIC50 (JeKo-1 cells): 5.00 to 6.00

Nc1ncnc2c1c(-c1ccc(Oc3ccccc3)cc1)nn2C1CCN([C@H]2CCN(CC3CCN(c4ccc5c(c4)C(=O)N(C4CCC(=O)NC4=O)C5=O)CC3)C2)CC1 (stereo partly drawn) [Compound 449a, 5-(4-(((S)-3-(4-(4-amino-3-(4-phenoxyphenyl)-1H-pyrazolo[3,4-d]pyrimidin-1-yl)piperidin-1-yl)pyrrolidin-1-yl)methyl)piperidin-1-yl)-2-(2,6-dioxopiperidin-3-yl)isoindoline-1,3-dione]
DC50 (BTK; [1]): < 10 nM | Dmax (BTK; [2]): > 90% | pIC50 (Mino cells; MINO): > 6.00 | pIC50 (JeKo-1 cells): > 6.00

NC(=O)c1c(-c2ccc(Oc3ccccc3)cc2)nn2c1NCC[C@H]2C1CCN(CC2CCN(C(=O)N3CCC(CN4CCC(c5ccc6c(c5)C(=O)N(C5CCC(=O)NC5=O)C6=O)CC4)CC3)CC2)CC1 (stereo partly drawn) [Compound 415, (7S)-7-(1-((1-(4-((4-(2-(2,6-dioxopiperidin-3-yl)-1,3-dioxoisoindolin-5-yl)piperidin-1-yl)methyl)piperidine-1-carbonyl)piperidin-4-yl)methyl)piperidin-4-yl)-2-(4-phenoxyphenyl)-4,5,6,7-tetrahydropyrazolo[1,5-a]pyrimidine-3-carboxamide]
DC50 (BTK; [1]): 10 to 50 nM | Dmax (BTK; [2]): > 75% | pIC50 (Mino cells; MINO): > 6.00 | pIC50 (JeKo-1 cells): 5.00 to 6.00

NC1=NC=NC2C1C(c1ccc(Oc3ccccc3)cc1)=NN2C1CCN(C(=O)N2CC(C3CN(c4ccc5c(c4)CN([C@@H]4CCC(=O)NC4=O)C5=O)C3)C2)CC1 (stereo partly drawn) [Compound 496, (3R)-3-(5-(1′-(4-(4-amino-3-(4-phenoxyphenyl)-3a,7a-dihydro-1H-pyrazolo[3,4-d]pyrimidin-1-yl)piperidine-1-carbonyl)-[3,3′-biazetidin]-1-yl)-1-oxoisoindolin-2-yl)piperidine-2,6-dione]
DC50 (BTK; [1]): < 10 nM | Dmax (BTK; [2]): > 90% | pIC50 (Mino cells; MINO): > 6.00 | pIC50 (JeKo-1 cells): > 6.00

Nc1ncnc2c1c(-c1ccc(Oc3ccccc3)cc1)nn2C1CCN(C[C@@H]2CCN(CC3CN(CC4CN(c5ccc6c(c5)C(=O)N(C5CCC(=O)NC5=O)C6=O)C4)C3)C2)CC1 (stereo partly drawn) [Compound 427b, 5-(3-((3-(((S)-3-((4-(4-amino-3-(4-phenoxyphenyl)-1H-pyrazolo[3,4-d]pyrimidin-1-yl)piperidin-1-yl)methyl)pyrrolidin-1-yl)methyl)azetidin-1-yl)methyl)azetidin-1-yl)-2-(2,6-dioxopiperidin-3-yl)isoindoline-1,3-dione]
DC50 (BTK; [1]): > 50 nM | Dmax (BTK; [2]): > 90% | pIC50 (Mino cells; MINO): 5.00 to 6.00 | pIC50 (JeKo-1 cells): 5.00 to 6.00

Nc1ncnc2c1c(-c1ccc(Oc3ccccc3)cc1)nn2C1CCN(CC2CCN(CC3CCN(c4ccc5c(c4)CN(C4CCC(=O)NC4=O)C5=O)C3)C2)CC1 (stereo not shown) [Compound 448, 3-(5-(3-((3-((4-(4-amino-3-(4-phenoxyphenyl)-1H-pyrazolo[3,4-d]pyrimidin-1-yl)piperidin-1-yl)methyl)pyrrolidin-1-yl)methyl)pyrrolidin-1-yl)-1-oxoisoindolin-2-yl)piperidine-2,6-dione]
DC50 (BTK; [1]): 10 to 50 nM | Dmax (BTK; [2]): > 90% | pIC50 (Mino cells; MINO): 5.00 to 6.00 | pIC50 (JeKo-1 cells): 5.00 to 6.00
